Columns and labels:
[1] = tested on: human prostate cancer surgical specimen; test: Study using human prostate cancer surgical specimen; settings: 2.50 μM probe solution in 1×TBS, 40° C., up to 4 hours
Description: • 1. Wash surgical specimen with 1×TBS buffer • 2. Add dropwise 2.50 μM of 2Me5GluAF-TG solution (diluted with 1×TBS buffer) so that the whole specimen is immersed. • 3. While heating to 40° C. with a heater, take a fluorescence image by Maestro for up to 4 hours • 4. Judge from the fluorescence image taken 4 hours after immersion, select and cut out several sites showing bright fluorescence and several sites showing no fluorescence, and fix with a 10% formalin solution • 5. Request a pathologist to perform HE staining/PSMA immunostaining on each site and evaluate a rate of cancer sites and PSMA expression
The results of using four types of specimens are illustrated in FIG. 21 to FIG. 24. FIG. 25 illustrates a result obtained by changing the above protocol (changing a method so that a surface is covered with gauze soaked in a probe solution, temporarily removing the gauze, and taking a fluorescence image). • (a) of each figure illustrates a photograph before immersion of the surgical specimen in a Me5GluAF-TG solution and a photograph taken 4 hours after the immersion (the right side is a fluorescence image). The graph on the left side of (b) illustrates a change in fluorescence intensity at a selected site of the surgical specimen from the immersion in the Me5GluAF-TG solution to 4 hours after the immersion. […]

PSMA [2] = target: T1, PSMA (Homo sapiens, UniProt Q04609); test: LC-UV/MS analysis of PSMA reaction solution; type: biochemical; settings: 10 hours
T1 sequence (Q04609 whole entry): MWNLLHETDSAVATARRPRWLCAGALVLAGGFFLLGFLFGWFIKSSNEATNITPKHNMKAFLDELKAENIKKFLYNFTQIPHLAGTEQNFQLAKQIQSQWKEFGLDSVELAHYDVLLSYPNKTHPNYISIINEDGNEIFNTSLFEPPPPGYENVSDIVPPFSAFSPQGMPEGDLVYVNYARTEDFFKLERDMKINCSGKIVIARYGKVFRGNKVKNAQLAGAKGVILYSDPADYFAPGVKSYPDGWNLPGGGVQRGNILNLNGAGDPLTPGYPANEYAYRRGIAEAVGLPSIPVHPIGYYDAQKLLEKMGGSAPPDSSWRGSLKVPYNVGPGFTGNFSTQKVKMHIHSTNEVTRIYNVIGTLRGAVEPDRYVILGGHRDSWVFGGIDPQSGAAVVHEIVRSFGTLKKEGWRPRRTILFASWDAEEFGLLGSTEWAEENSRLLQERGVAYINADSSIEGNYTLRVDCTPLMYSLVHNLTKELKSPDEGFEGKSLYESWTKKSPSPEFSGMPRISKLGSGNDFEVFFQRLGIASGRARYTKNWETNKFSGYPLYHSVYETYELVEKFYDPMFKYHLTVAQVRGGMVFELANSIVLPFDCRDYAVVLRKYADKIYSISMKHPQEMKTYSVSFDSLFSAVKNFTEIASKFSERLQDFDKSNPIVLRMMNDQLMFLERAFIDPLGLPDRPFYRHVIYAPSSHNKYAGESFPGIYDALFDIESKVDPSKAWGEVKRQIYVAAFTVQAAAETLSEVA
Description: A solution, prepared after recombinant human PSMA and 2Me5GluAF-TG (Compound 32) were reacted for 10 hours, and 2Me5GluAF-TG and 2MeTG synthesized as preparations were subjected to LC-UV/MS analysis.
Probe concentration: 10 μM (2Me5GluAF-TG, enzyme reaction solution), 2 μM (2MeTG). The results are illustrated in FIG. 13 and FIG. 14.

[3] = tested on: PC3 cell lysate (PSMA non-expressing prostate cancer cell); test: Cell lysate assay, PC3; type: biochemical; settings: probe 10 μM, 37° C.
Description: (§1) A PSMA specific inhibitor 2-PMPA (10 μM) was added to one of LNCaP cell lysate samples at the same time, and measurement was performed. • (2) The obtained fluorescence intensity of each lysate was normalized based on 0 minutes being set to 1, and then plot was performed with the incubation time on the horizontal axis.
(§2) A solution (20 μM, 100 μL) of 2Me5GluAF-TG (Compound 32) and a cell lysate (0.36 mg/mL, 100 μL) were reacted in TBS-T buffer at 37° C., and the fluorescence intensity was measured every 30 minutes. The measurement procedure is as described in Example 3.
(§3) Ex/em: 485/535 nm, n=3, probe final concentration: 10 μM, inhibitor (2-PMPA) concentration: 10 μM

LNCaP cells = test: LC-UV/MS analysis of extracellular fluid after LNCaP imaging; type: cell-based
Description: After imaging of LNCaP cells using 2Me5GluAF-TG, a collected extracellular fluid, and 2Me5GluAF-TG and 2MeTG synthesized as preparations were subjected to the LC-MS analysis under the following conditions.
Probe concentration: 10 μM (2Me5GluAF-TG, extracellular fluid), 2 μM (2MeTG).

[4] = tested on: LNCaP cells (high PSMA expression); test: Live cell imaging, LNCaP cells (confocal microscope); type: cell-based
Description: (§4) A solution (final concentration: 10 μM) of 2Me5GluAF-TG (Compound 32) diluted with HBSS(+) was added to LNCaP cells (high PSMA expression) or PC3 cells (PSMA non-expression), and a fluorescence image was taken by a confocal microscope every 1 hour under the following conditions while culturing at 37° C. and 5% CO2.
A probe (2Me5GluAF-TG) and an inhibitor were added, and after culturing at 37° C. and 5% CO2 for 15 hours, a fluorescence image was taken with a confocal microscope. Probe concentration: 10 μM, inhibitor (2-PMPA) concentration: 10 μM, Ex/em: 490/500-600 nm, Scale bar: 50 μm.
Ten intracellular regions and ten extracellular regions were each surrounded by ROI, and an average value of the fluorescence intensity was calculated. FIG. 18a illustrates the taken fluorescence image, and FIG. 18b illustrates the average value of the fluorescence intensity with and without addition of the inhibitor.

PSMA [5] = target: T1, PSMA; test: Reactivity with PSMA purified enzyme (Example 6); type: biochemical
[6] = tested on: LNCaP cell lysate (PSMA expressing prostate cancer cell); test: Cell lysate assay, LNCaP; type: biochemical; settings: probe 10 μM, 37° C.; for Increase in fluorescence in LNCaP cell lysate with inhibitor: 2-PMPA 10 μM
Description: as §1, §2, §3

[7] = tested on: PC3 cells (PSMA non-expression); test: Live cell imaging, PC3 cells (confocal microscope); type: cell-based; settings: probe 10 μM in HBSS(+), image every 1 hour
Description: as §4

[8] = Absorption/fluorescence spectrum measurement; type: physicochemical; settings: for Fluorescence under physiological conditions: as compared to fluorescein; for Absorption maximum (nm) / Fluorescence maximum (nm) / Quantum yield: 200 mM phosphate buffer (pH 7.4)
Description: The absorption spectrum was measured using UV-2450 (SIMADZU), and the fluorescence spectrum was measured using F-7000 (HITACHI).
FIG. 9 and FIG. 10 illustrate the results of the absorption/fluorescence spectrum measurement of 2Me5GluAF-TG (Compound 32). […] The absorption spectrum was measured using UV-2450 (SIMADZU), and the fluorescence spectrum was measured using F-7000 (HITACHI).

PSMA [9] = target: T1, PSMA; test: Enzyme assay with PSMA (Example 2), fluorescence spectrum and Michaelis-Menten plot; type: biochemical; settings: for Fluorescence rise due to enzymatic reaction with PSMA: 10 μM probe, 0.44 μg PSMA, 37° C., 15 hours
Description: A change in the fluorescence spectrum due to the enzymatic reaction was measured as follows. The reactivity of 6-fluAFGlu to PSMA was evaluated by creating a Michaelis-Menten plot. • (1) Two solutions prepared by dissolving 10 μM probe in 200 μL of each assay buffer were provided. • (Assay buffer: 50 mM HEPES, 100 mM NaCl, pH 7.5) • (2) 0.44 μg of PSMA was added to each and incubated at 37° C. for 15 hours. For one of the solutions, a PSMA specific inhibitor 2-(Phosphonomethyl)-pentandioic acid (2-PMPA) (final concentration 10 μM) was also added at the same time and incubated at 37° C. for 15 hours. • (3) Each solution after the incubation in (2) was diluted to 2800 μL with 200 mM Na-Pi buffer, and the fluorescence spectrum was measured.
FIG. 1 illustrates the fluorescence spectrum of 5-fluAFGlu and 6-fluAFGlu after addition of PSMA and an inhibitor (2-PMPA, 10 μM) (S/N to 417 at 516 nm).

[10] = tested on: LNCaP (PSMA expressing cell); test: Live cell assay on 96-well plate (plate reader); type: cell-based
Description: LNCaP as a PSMA expressing cell and PC3 as a PSMA non-expressing cell were cultured on a 96-well plate, a 10 μM aqueous solution of 6-fluAFGlu (Compound 25) was added thereto, and the cells were observed over time.

carboxypeptidase A (CPA) = target: T2, carboxypeptidase A (CPA) (Homo sapiens, UniProt P15085); test: Enzyme assay with CPA; type: biochemical
T2 sequence (P15085 111-419): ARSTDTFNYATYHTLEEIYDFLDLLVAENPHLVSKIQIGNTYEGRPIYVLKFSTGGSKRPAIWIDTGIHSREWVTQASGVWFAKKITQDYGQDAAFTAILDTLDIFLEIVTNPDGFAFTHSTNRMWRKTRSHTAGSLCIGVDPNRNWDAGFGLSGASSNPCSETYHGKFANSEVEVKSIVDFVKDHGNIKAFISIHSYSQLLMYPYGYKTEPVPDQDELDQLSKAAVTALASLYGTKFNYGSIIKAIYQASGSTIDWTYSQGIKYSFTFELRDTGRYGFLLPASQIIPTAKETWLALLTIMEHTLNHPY
Description: • (1) First to third solutions prepared by dissolving 10 μM probe in 600 μL of each assay buffer were provided. • (Assay buffer: Tris-buffered saline (TBS)) (2) 2 μg of CPA was activated with 18 μL of 5 ng/mL trypsine solution for 1 hour • (3) 9 μL of the solution in (2) was added to the solution in (1), and the mixture was incubated at 37° C. for 5 hours. For one of the solutions, a CPA specific inhibitor; potato carboxypeptidase inhibitor (final concentration 10 μg/mL) was also added at the same time and incubated at 37° C. for 5 hours. • (4) 200 μL of each solution after the incubation in (3) was diluted to 2800 μL with 200 mM Na-Pi […], and the fluorescence spectrum was measured.

[11] = tested on: Cc1ccc(/N=N/C(=O)N[C@@H](CCC(=O)O)C(=O)O)cc1-c1c2ccc(=O)cc-2oc2cc(O)ccc12; test: Reactivity with PSMA purified enzyme (Example 6); type: biochemical, human; settings: other: apparent dynamic parameter, PSMA added to various probe concentrations, Table 4; 37.0 °C
[12] = apparent dynamic parameter with PSMA, Table 2

Cc1ccc(/N=N/C(=O)N[C@@H](CCC(=O)O)C(=O)O)cc1-c1c2ccc(=O)cc-2oc2cc(O)ccc12 [Compound 2Me5GluAF-TG]
Relation of fluorescence increase to cancer site / PSMA expression [1]: a rough correlation between the increase in fluorescence intensity and the presence or absence of the cancer site or a PSMA expression level | Stability of the probe (LC-UV/MS) (PSMA [2]; inhibitor (2-PMPA) added or absence of PSMA): stable | Products of the reaction with PSMA (LC-UV/MS) (PSMA [2]; probe 10 μM, in the presence of PSMA): 2MeTG and 2Me5OH-TG exhibiting fluorescence in the presence of PSMA were produced | Increase in fluorescence in PC3 cell lysate [3]: almost no increase in fluorescence was observed | Product in extracellular fluid (LC-MS) (LNCaP cells; absence of the inhibitor (2-PMPA)): production of fluorescent 2MeTG was confirmed | Stability of the probe in extracellular fluid (LC-MS) (LNCaP cells; inhibitor added): stable | Fluorescence image intensity in LNCaP cells ([4]; probe 10 μM in HBSS(+), image every 1 hour): the fluorescence intensity of the fluorescence image increased with the passage of time | Fluorescence image intensity with inhibitor ([4]; probe 10 μM, 2-PMPA 10 μM, 15 hours): the intensity of the fluorescence image does not increase | Average fluorescence intensity inside versus outside the cell ([4]; probe 10 μM, no inhibitor, 15 hours): the average value of the fluorescence intensity inside the cell is much higher than that outside the cell | Increase in fluorescence with PSMA (PSMA [5]; 10 μM probe, 0.44 μg PSMA, 1×TBS, 37° C.): the increase in fluorescence due to the enzymatic reaction was observed | Increase in fluorescence with PSMA in presence of inhibitor (PSMA [5]; inhibitor 2-PMPA 10 μM): No increase in fluorescence was observed | Increase in fluorescence in LNCaP cell lysate with inhibitor [6]: almost no increase in fluorescence was observed | Increase in fluorescence in LNCaP cell lysate [6]: a significant increase in fluorescence was observed | Fluorescence image in PC3 cells [7]: no change was observed in the fluorescence image | Φfl ([8]; 0.2M phosphate buffer (pH 7.4)): 0.002 | λabs (nm) ([8]; Table 3): 495 nm | λem (nm) ([8]; Table 3): 516 nm | Fluorescence under physiological conditions [8]: almost no fluorescencence

O=C(O)CCC(NC(=O)N=Nc1ccc2c(c1)C(=O)OC21c2ccc(O)cc2Oc2cc(O)ccc21)C(=O)O (centres unmarked) [Compound 5-fluAFGlu]
Fluorescence rise due to enzymatic reaction with PSMA (PSMA [9]): only in 6-fluAFGlu | Absorption maximum (nm) [8]: 494 nm | Fluorescence maximum (nm) [8]: 521 nm | Quantum yield [8]: 0.003 | Fluorescence under physiological conditions [8]: almost no fluorescencence

O=C(O)CCC(NC(=O)N=Nc1ccc(C(=O)O)c(-c2c3ccc(=O)cc-3oc3cc(O)ccc23)c1)C(=O)O (centres unmarked) [Compound 6-fluAFGlu]
Fluorescence rise due to enzymatic reaction with PSMA (PSMA [9]): a fluorescence rise due to an enzymatic reaction was observed | Km (PSMA [9]; [12]): 2.4 µM | kcat (PSMA [9]; [12]): 0.00055 s⁻¹ | S/N of fluorescence spectrum after addition of PSMA and inhibitor (PSMA [9]; at 516 nm, inhibitor 2-PMPA 10 μM): ~417 | Increase in fluorescence intensity in live LNCaP cells ([10]; 10 μM probe in TBS, compared to PC3): a significant increase in fluorescence intensity was observed in LNCaP compared to PC3 | Increase in fluorescence in live LNCaP cells with inhibitor ([10]; 10 μM probe, 2-PMPA 10 μM): significantly suppressed | Increase in fluorescence in PC3 cell lysate [3]: almost no increase in fluorescence was observed | Km (PSMA [5]; apparent dynamic parameter, PSMA added to various probe concentrations, Table 4): 5 µM | kcat (PSMA [5]; apparent dynamic parameter, Table 4): 0.001 s⁻¹ | Increase in fluorescence in LNCaP cell lysate with inhibitor [6]: almost no increase in fluorescence was observed | Increase in fluorescence in LNCaP cell lysate [6]: a significant increase in fluorescence was observed | Absorption maximum (nm) [8]: 494 nm | Fluorescence maximum (nm) [8]: 526 nm | Quantum yield [8]: 0.002 | Fluorescence under physiological conditions [8]: almost no fluorescencence

O=C(N=Nc1ccc(C(=O)O)c(-c2c3ccc(=O)cc-3oc3cc(O)ccc23)c1)NC(Cc1ccccc1)C(=O)O (centres unmarked) [Compound 6-fluAFPhe]
Fluorescence rise due to enzymatic reaction with CPA (carboxypeptidase A (CPA); 10 μM probe, 37° C., 5 hours): the fluorescence rise due to the enzymatic reaction was observed | S/N of fluorescence spectrum after addition of CPA1 and inhibitor (carboxypeptidase A (CPA); at 517 nm, potato carboxypeptidase inhibitor, 10 μM): ~13 | Absorption maximum (nm) [8]: 494 nm | Fluorescence maximum (nm) [8]: 519 nm | Quantum yield [8]: 0.025 | Fluorescence under physiological conditions [8]: almost no fluorescencence

recombinant human PSMA (Homo sapiens)
Km [11]: 4.3 µM | kcat [11]: 0.066 s⁻¹ | kcat/Km [11]: 15300 M⁻¹ s⁻¹

— US12055546B2, “Fluorescent probe for detecting carboxypeptidase activity” (THE UNIVERSITY OF TOKYO, priority 2018, dated 2024)
